According to ChEMBL document CHEMBL3425487, “Synthesis of new thiazolylmethoxyphenyl pyrimidines and antihyperglycemic evaluation of the pyrimidines, analogues isoxazolines and pyrazolines” (2015):

test system: Rattus norvegicus; test: Antihyperglycemic activity in normoglycemic male albino Sprague-Dawley rat assessed as improvement in sucrose tolerance at 100 mg/kg, po by Oral sucrose tolerance test; type: functional

Row | SMILES | Activity [%]
1 | S=C1NC(c2ccccc2)=CC(c2ccc(OCc3csc(-c4ccccc4)n3)cc2)N1 (stereo not drawn) | 0.07
2 | COc1ccc(C2=CC(c3ccc(OCc4csc(-c5ccccc5)n4)cc3)NC(=S)N2)cc1 (stereo not drawn) | 1.05
3 | O=[N+]([O-])c1ccc(C2=NNC(c3ccc(OCc4csc(-c5ccccc5)n4)cc3)C2)cc1 (stereo not drawn) | 2.47
4 | c1ccc(C2=NOC(c3ccc(OCc4csc(-c5ccccc5)n4)cc3)C2)cc1 (stereo not drawn) | 2.73
5 | O=[N+]([O-])c1ccc(C2=NOC(c3ccc(OCc4csc(-c5ccccc5)n4)cc3)C2)cc1 (stereo not drawn) | 0.91
6 | COc1ccc(C2=NNC(c3ccc(OCc4csc(-c5ccccc5)n4)cc3)C2)cc1 (stereo not drawn) | 0.85
7 | c1ccc(C2=NNC(c3ccc(OCc4csc(-c5ccccc5)n4)cc3)C2)cc1 (stereo not drawn) | 7.42
8 | COc1ccc(C2=NOC(c3ccc(OCc4csc(-c5ccccc5)n4)cc3)C2)cc1 (stereo not drawn) | 8.37
9 | CN(C)C(=N)NC(=N)N [METFORMIN] | 14.1
10 | Fc1ccc(C2=NNC(c3ccc(OCc4csc(-c5ccccc5)n4)cc3)C2)cc1 (stereo not drawn) | 10.4
11 | Fc1ccc(C2=NOC(c3ccc(OCc4csc(-c5ccccc5)n4)cc3)C2)cc1 (stereo not drawn) | 4.88
12 | O=[N+]([O-])c1ccc(C2=CC(c3ccc(OCc4csc(-c5ccccc5)n4)cc3)NC(=S)N2)cc1 (stereo not drawn) | 7.04
13 | Fc1ccc(C2=CC(c3ccc(OCc4csc(-c5ccccc5)n4)cc3)NC(=S)N2)cc1 (stereo not drawn) | 8.22
